# Measured values taken from patent US20180230127A1 (PFIZER INC., priority 2015, published 2018).
# Where a name gives a salt, the structure may show the parent alone.
# Biological target: T1, human IRAK4 kinase domain (aa 154-460) (Homo sapiens, UniProt Q9NWZ3)
# T1 construct: human IRAK4 kinase domain (aa 154-460; GenBank ID AF445802)
# T1 sequence (Q9NWZ3 154-460): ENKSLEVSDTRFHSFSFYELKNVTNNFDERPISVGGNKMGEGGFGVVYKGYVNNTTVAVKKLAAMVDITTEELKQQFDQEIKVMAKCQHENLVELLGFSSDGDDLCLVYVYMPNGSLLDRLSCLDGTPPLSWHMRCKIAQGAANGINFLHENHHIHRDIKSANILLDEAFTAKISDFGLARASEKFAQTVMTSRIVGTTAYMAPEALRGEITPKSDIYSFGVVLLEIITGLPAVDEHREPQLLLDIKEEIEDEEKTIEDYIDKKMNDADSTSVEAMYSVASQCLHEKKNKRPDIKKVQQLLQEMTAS
# Assay: IRAK4 Enzymatic DELFIA Assay
# Type: biochemical
# Details: 0.6 mM ATP (KM); 114 pM IRAK4 kinase domain; 200 nM substrate; 5% DMSO
row,Compound,IC50 [nM]
1,"CC(C)Oc1cc2c(O[C@@H]3CCCN(C(=O)CC#N)C3)nccc2cc1C(N)=O [Example 36, 1-{[(3R)-1-(cyanoacetyl)piperidin-3-yl]oxy}-7-(propan-2-yloxy)isoquinoline-6-carboxamide]",5
2,"CC(C)Oc1cc2c(O[C@@H]3CCN(C(=O)CC#N)C3)ccnc2cc1C(N)=O [Example 40, 4-{[(3R)-1-(cyanoacetyl)pyrrolidin-3-yl]oxy}-6-(propan-2-yloxy)quinoline-7-carboxamide]",82
3,"CC(C)Oc1cc2c(O[C@@H]3C[C@@H](C)N(C(=O)CC#N)C3)ccnc2cc1C(N)=O [Example 16, 4-{[(3R,5R)-1-(cyanoacetyl)-5-methylpyrrolidin-3-yl]oxy}-6-(propan-2-yloxy)quinoline-7-carboxamide formate]",110
4,"CC(C)Oc1cc2c(O[C@@H]3CCCN(C(=O)c4cnco4)C3)ccnc2cc1C(N)=O [Example 11, 4-{[(3R)-1-(1,3-oxazol-5-ylcarbonyl)piperidin-3-yl]oxy}-6-(propan-2-yloxy)quinoline-7-carboxamide formate]",560
5,"CC(C)Oc1cc2c(O[C@@H]3CCCN(C(=O)[C@H](N)CC#N)C3)ccnc2cc1C(N)=O [Example 48, 4-({(3R)-1-[(2R)-2-amino-3-cyanopropanoyl]piperidin-3-yl}oxy)-6-(propan-2-yloxy)quinoline-7-carboxamide trifluoroacetate]",299
6,"CC(C)Oc1cc2c(O[C@H]3CN(C(=O)CC#N)CC[C@@H]3C)ccnc2cc1C(N)=O [Example 52, 4-{[(3R,4S)-1-(cyanoacetyl)-4-methylpiperidin-3-yl]oxy}-6-(propan-2-yloxy)quinoline-7-carboxamide]",65
7,"CC(O)CN1CCC(Oc2nccc3cc(C(N)=O)c(OC(C)C)cc23)CC1 (stereo not drawn) [Example 41, 1-{f[1-(2-hydroxypropyl)piperidin-4-yl]oxy}-7-(propan-2-yloxy)isoquinoline-6-carboxamide]",883
8,"CC(C)Oc1cc2c(O[C@@H]3CCCN(C(=O)CC#N)C3)ncc(C#N)c2cc1C(N)=O [Example 38, 4-cyano-1-{[(3R)-1-(cyanoacetyl)piperidin-3-yl]oxy}-7-(propan-2-yloxy)isoquinoline-6-carboxamide]",162
9,"Cc1cnc(O[C@@H]2CCCNC2)c2cc(OC(C)C)c(C(N)=O)cc12 [Example 56, 4-methyl-1-[(3R)-piperidin-3-yloxy]-7-(propan-2-yloxy)isoquinoline-6-carboxamide hydrochloride]",288
10,"CC(C)Oc1cc2c(OC3CCNC3=O)nccc2cc1C(N)=O (stereo not drawn) [Example 21, 1-[(2-oxopyrrolidin-3-yl)oxy]-7-(propan-2-yloxy)isoquinoline-6-carboxamide]",602
11,"CC(C)Oc1cc2c(O[C@@H]3CCCNC3)ncc(C#N)c2cc1C(N)=O [Example 73, 4-cyano-1-[(3R)-piperidin-3-yloxy]-7-(propan-2-yloxy)isoquinoline-6-carboxamide]",1590
12,"CC[C@H](C)Oc1cc2c(O[C@@H]3CCCNC3)ccnc2cc1C(N)=O [Example 72, 6-[(2S)-butan-2-yloxy]-4-[(3R)-piperidin-3-yloxy]quinoline-7-carboxamide]",1100
